Assay [1] has as its system LTB4 production by calcium ionophore-stimulated murine blood. Briefly: LTB4 production by calcium ionophore-stimulated murine blood for LTA4H inhibitor activity. The class given is cell-based, CD-1 mice. Particulars: Mus musculus. How it is done:
Assay 2: LTB4 Production by Calcium Ionophore-Stimulated Murine Blood for LTA4H Inhibitor Activity
CD-1 mice were sacrificed, and blood was collected in heparin-containing syringes by cardiac puncture. […] After the microtiter plate contents were incubated for 15 min at 37° C. in a humidified incubator, calcium ionophore A23187 (Sigma Chemical Co., St. Louis, Mo.) was added to each sample well (final concentration=7 μg/mL). The incubation was continued under the same conditions for an additional 30 min to allow LTB4 formation. The reaction was terminated by centrifugation (833×g, 10 min at 4° C.), and supernatants were analyzed for LTB4 by a commercially available enzyme-linked immunoassay (Cayman Chemical Co.) according to the manufacturer's instructions. Positive controls, under essentially identical conditions but without addition of an inhibitor compound, and negative unstimulated controls, containing all assay components except calcium ionophore, were routinely run in each experiment. […] The values presented here are the result of a single determination or an average of two or more determinations, as indicated in parentheses following each value. For compounds tested three or more times, the average value is followed by the standard deviation

Assay [2] deals with T1, recombinant human LTA4 hydrolase (rhLTA4H) (Homo sapiens, UniProt P09960).
T1 construct: made in house; host or cells: Spodoptera frugiperda (Sf-9) cells, recombinant baculovirus (pFastBac1)
T1 sequence (P09960 1-611): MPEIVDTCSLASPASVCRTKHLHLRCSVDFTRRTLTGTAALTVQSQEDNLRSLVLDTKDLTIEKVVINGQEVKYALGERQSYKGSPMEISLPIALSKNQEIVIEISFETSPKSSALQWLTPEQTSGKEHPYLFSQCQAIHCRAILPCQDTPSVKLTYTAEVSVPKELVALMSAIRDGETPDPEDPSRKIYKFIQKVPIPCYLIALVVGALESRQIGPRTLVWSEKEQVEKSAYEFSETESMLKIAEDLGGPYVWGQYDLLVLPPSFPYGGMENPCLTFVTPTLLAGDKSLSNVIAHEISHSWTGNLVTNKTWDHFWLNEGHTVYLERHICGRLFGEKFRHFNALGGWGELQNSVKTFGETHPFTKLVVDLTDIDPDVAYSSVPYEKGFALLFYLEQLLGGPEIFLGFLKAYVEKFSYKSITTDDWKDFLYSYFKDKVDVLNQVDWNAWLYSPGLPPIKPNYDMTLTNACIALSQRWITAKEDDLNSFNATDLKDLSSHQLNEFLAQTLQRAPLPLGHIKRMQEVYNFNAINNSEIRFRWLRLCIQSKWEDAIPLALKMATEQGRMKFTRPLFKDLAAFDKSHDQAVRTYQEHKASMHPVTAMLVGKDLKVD
In words: Recombinant human LTA4 hydrolase assay for LTA4 hydrolase inhibitor activity. Particulars: rhLTA4H, LTA4 substrate, LTB4 by immunoassay; single determination or average; read-out: IC50. The format is biochemical. The gist of the method: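 Recombinant human LTA4H from baculovirus-infected Sf-9 cells (10 ng) pre-incubated 10 min at rt with compound (10% DMSO in dilutions), then reacted with free-acid LTA4 for 30 min at rt. LTB4 measured by ELISA; IC50 by nonlinear regression. Values are single determinations or averages.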

The mark [3] stands for this setting: murine blood diluted 1 in 15, calcium ionophore A23187, LTB4 by immunoassay, read-out: IC50.

Where a name gives a salt, the structure may show the parent alone. Read-outs that look alike come from different tables or passages of the source.

Here are results for 26 molecules from US20110190503A1, “Thiazolopyridin-2-yloxy-phenyl and thiazolopyrazin-2-yloxy-phenyl amines as modulators of leukotriene A4 hydrolase” (Janssen Pharmaceutical NV, priority 2008, published 2011).

For orientation: IC50 means the concentration that gives 50% inhibition. Regarding `CC(=O)NC1CCN(CCOc2ccc(Oc3nc4ncc(C)cc4s3)cc2)CC1` [Example 154, N-[1-(2-{4-[(6-Methyl[1,3]thiazolo[4,5-b]pyridin-2-yl)oxy]phenoxy}ethyl)piperidin-4-yl]acetamide], the IC50 was found to be 0.33 µM in assay [1] (setting [3]) and 0.049 µM in assay [2].
For `OCC1CCN(Cc2ccc(Oc3nc4ncccc4s3)cc2)CC1` [Example 95, {1-[4-([1,3]Thiazolo[4,5-b]pyridin-2-yloxy)benzyl]piperidin-4-yl}methanol] the same measures were 0.029 µM and 0.011 µM.
For `c1ccc(SC2CCN(Cc3ccc(Oc4nc5ncccc5s4)cc3)CC2)cc1` [Example 264, 2-(4-{[4-(Phenylsulfanyl)piperidin-1-yl]methyl}phenoxy)[1,3]thiazolo[4,5-b]pyridine] the same measures were 0.159 µM and 0.03 µM.
In the same order, the values of `c1ccc(OC2CCN(CCOc3ccc(Oc4nc5ncccc5s4)cc3)CC2)nc1` [Example 12, 2-(4-{2-[4-(Pyridin-2-yloxy)piperidin-1-yl]ethoxy}phenoxy)[1,3]thiazolo[4,5-b]pyridine] are 0.16 µM and 0.011 µM.
For the molecule `NC(=O)N[C@H]1C[C@H]2CC[C@@H](C1)N2Cc1ccc(Oc2nc3ncccc3s2)cc1` [Example 278, meso-1-{(3-endo)-8-[4-([1,3]Thiazolo[4,5-b]pyridin-2-yloxy)benzyl]-8-azabicyclo[3.2.1]oct-3-yl}urea], the IC50 in assay [1] (setting [3]) came out at 0.28 µM; in assay [2] it was 0.002 µM.
In the same order, the values of `CC(=O)N[C@@H]1C[C@H]2CC[C@@H](C1)N2CCOc1ccc(Oc2nc3cccnc3s2)cc1` [Example 153, meso-N-[(3-exo)-8-{2-[4-([1,3]Thiazolo[5,4-b]pyridin-2-yloxy)phenoxy]ethyl}-8-azabicyclo[3.2.1]oct-3-yl]acetamide] are 0.36 µM and 0.035 µM.
In the same order, the values of `CCCN(CCc1ccc(Oc2nc3ncccc3s2)cc1)CC1CC1` [Example 57, N-(Cyclopropylmethyl)-N-{2-[4-([1,3]thiazolo[4,5-b]pyridin-2-yloxy)phenyl]ethyl}propan-1-amine] are 0.016 µM and 0.003 µM.
For `CC(=O)N1C[C@@H]2C[C@H]1CN2Cc1ccc(Oc2nc3cccnc3s2)cc1` [Example 124, 2-(4-{[(1S,4S)-5-Acetyl-2,5-diazabicyclo[2.2.1]hept-2-yl]methyl}phenoxy)[1,3]thiazolo[5,4-b]pyridine] the same measures were 0.7 µM and 0.22 µM.
For `c1ccc(SC2CCN(CCOc3ccc(Oc4nc5ncccc5s4)cc3)CC2)nc1` [Example 291, 2-(4-{2-[4-(Pyridin-2-ylsulfanyl)piperidin-1-yl]ethoxy}phenoxy)[1,3]thiazolo[4,5-b]pyridine], the IC50 in assay [1] (setting [3]) amounted to 0.28 µM; in assay [2], 0.082 µM.
In the same order, the values of `CC(=O)N1C[C@@H]2C[C@H]1CN2Cc1ccc(Oc2nc3nccc(C)c3s2)cc1` [Example 125, 2-(4-{[(1S,4S)-5-Acetyl-2,5-diazabicyclo[2.2.1]hept-2-yl]methyl}phenoxy)-7-methyl[1,3]thiazolo[4,5-b]pyridine] are 0.019 µM and 0.012 µM.
With `C[C@H]1COCCN1Cc1ccc(Oc2nc3ncccc3s2)cc1` [Example 88, 2-(4-{[(3S)-3-Methylmorpholin-4-yl]methyl}phenoxy)[1,3]thiazolo[4,5-b]pyridine], the IC50 in assay [1] (setting [3]) came out at 0.05 µM; in assay [2], 0.008 µM.
With `c1ccc(OC2CCN(Cc3ccc(Oc4nc5ncccc5s4)cc3)CC2)nc1` [Example 261, 2-(4-{[4-(Pyridin-2-yloxy)piperidin-1-yl]methyl}phenoxy)[1,3]thiazolo[4,5-b]pyridine], the IC50 in assay [1] (setting [3]) came out at 0.038 µM; in assay [2] it was 0.007 µM.
In the same order, the values of `CN(CCOc1ccc(Oc2nc3ncccc3s2)cc1)Cc1ccccc1` [Example 36, N-Benzyl-N-methyl-2-[4-([1,3]thiazolo[4,5-b]pyridin-2-yloxy)phenoxy]ethanamine] are 0.051 µM and 0.003 µM.
In the same order, the values of `CS(=O)(=O)N[C@H]1C[C@H]2CC[C@@H](C1)N2Cc1ccc(Oc2nc3ncccc3s2)cc1` [Example 182, meso-N-[(3-endo)-8-{[4-([1,3]Thiazolo[4,5-b]pyridin-2-yloxy)phenyl]methyl}-8-azabicyclo[3.2.1]oct-3-yl]methanesulfonamide] are 0.024 µM and 0.0019 µM.
Regarding `NC(=O)N1C[C@H]2C[C@@H]1CN2CCOc1ccc(Oc2nc3ncccc3s2)cc1` [Example 268, (1R,4R)-5-{2-[4-([1,3]Thiazolo[4,5-b]pyridin-2-yloxy)phenoxy]ethyl}-2,5-diazabicyclo[2.2.1]heptane-2-carboxamide], the results for the IC50 in assay [1] (setting [3]) and in assay [2] were 0.091 µM and 0.032 µM, respectively.
For `OC1(c2ccccc2)CCN(CCOc2ccc(Oc3nc4cccnc4s3)cc2)CC1` [Example 40, 4-Phenyl-1-{2-[4-([1,3]thiazolo[5,4-b]pyridin-2-yloxy)phenoxy]ethyl}piperidin-4-ol] the same measures were 0.95 µM and 0.099 µM.
For `c1cnc(OC2CCN(Cc3ccc(Oc4nc5ncccc5s4)cc3)CC2)nc1` [Example 99, 2-(4-{[4-(Pyrimidin-2-yloxy)piperidin-1-yl]methyl}phenoxy)[1,3]thiazolo[4,5-b]pyridine] the same measures were 0.008 µM and 0.002 µM.
In the same order, the values of `NC(=O)N1CC2CN(Cc3ccc(Oc4nc5ncccc5s4)cc3)CC2C1` (stereo not shown) [Example 277, 5-[4-([1,3]Thiazolo[4,5-b]pyridin-2-yloxy)benzyl]hexahydropyrrolo[3,4-c]pyrrole-2(1H)-carboxamide] are 0.9 µM and 0.007 µM.
Take `NC(=O)C1CCN(Cc2ccc(Oc3nc4ncc(Cl)cc4s3)cc2)CC1` [Example 284, 1-{4-[(6-Chloro[1,3]thiazolo[4,5-b]pyridin-2-yl)oxy]benzyl}piperidine-4-carboxamide]: the values for the IC50 in assay [1] (setting [3]) and in assay [2] were 0.64 µM and 0.089 µM, respectively.
In the same order, the values of `CC(=O)N1CCC2(CCN(Cc3ccc(Oc4nc5ncccc5s4)cc3)CC2)CC1` [Example 295, 3-Acetyl-9-[4-([1,3]thiazolo[4,5-b]pyridin-2-yloxy)benzyl]-3,9-diazaspiro[5.5]undecane] are 0.015 µM and 0.006 µM.
In the same order, the values of `c1cnc2nc(Oc3ccc(OCCN4CCCC4)cc3)sc2c1` [Example 9, 2-[4-(2-Pyrrolidin-1-ylethoxy)phenoxy][1,3]thiazolo[4,5-b]pyridine] are 0.017 µM and 0.006 µM.
In the case of `NC(=O)N[C@@H]1C[C@H]2CC[C@@H](C1)N2CCOc1ccc(Oc2nc3ncccc3s2)cc1` [Example 142, meso-1-[(3-exo)-8-{2-[4-([1,3]Thiazolo[4,5-b]pyridin-2-yloxy)phenoxy]ethyl}-8-azabicyclo[3.2.1]oct-3-yl]urea hydrochloride], the half-inhibitory concentration (IC50) in assay [1] was found to be 1600 µM; in assay [2] it was 0.008 µM.
For `COCCN(C)CCOc1ccc(Oc2nc3nccc(C)c3s2)cc1` [Example 160, N-Methyl-2-(methyloxy)-N-[2-({4-[(7-methyl[1,3]thiazolo[4,5-b]pyridin-2-yl)oxy]phenyl}oxy)ethyl]ethanamine], the IC50 was found to be 0.18 µM in assay [1] (setting [3]) and 0.099 µM in assay [2].
For `c1ccc(OC2CCN(Cc3ccc(Oc4nc5ncccc5s4)cc3)CC2)cc1` [Example 260, 2-{4-[(4-Phenoxypiperidin-1-yl)methyl]phenoxy}[1,3]thiazolo[4,5-b]pyridine] the same measures were 0.043 µM and 0.008 µM.
With `c1ccc(SC2CCN(CCOc3ccc(Oc4nc5ncccc5s4)cc3)CC2)cc1` [Example 3, 2-(4-{2-[4-(Phenylsulfanyl)piperidin-1-yl]ethoxy}phenoxy)[1,3]thiazolo[4,5-b]pyridine], the IC50 was 0.38 µM in assay [1] (setting [3]) and 0.07 µM in assay [2].
For `FC1CCN(Cc2ccc(Oc3nc4ncccc4s3)cc2)CC1` [Example 96, 2-{4-[(4-Fluoropiperidin-1-yl)methyl]phenoxy}[1,3]thiazolo[4,5-b]pyridine] the same measures were 0.037 µM and 0.024 µM.
